Several values for one entry are separate records, joined by “and”; a condition that tells them apart may be missing. Equal values may be shown once.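 Dose response: 5 concentrations. Exposure: 48 h. Format: 96-well plates. Endpoint: linear interpolation; highest concentration if not reached. The concentration for 50% growth inhibition is given as GI50. TGI: total growth inhibition.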
Columns and labels:
Assay in all cases: inhibition of tumour cell growth, NCI panel, 48 h
[1] = tested on: K-562 leukemia
[2] = tested on: A498 renal
[3] = tested on: BT-549 breast
[4] = tested on: KM12 colon
[5] = tested on: MDA-MB-231 breast
[6] = tested on: 786-0 renal
[7] = tested on: A549 NSCLC
[8] = tested on: PC-3 prostate
[9] = tested on: U251 CNS
[10] = tested on: SK-MEL-2 melanoma
[11] = tested on: HT29 colon
[12] = tested on: OVCAR-3 ovarian
[13] = tested on: OVCAR-4 ovarian

Cc1cccc2c1[C@]13OC(C)[C@]4(C)CC5OC(=O)[C@@]1(C)[C@@H]5[C@]34C(=O)O2 (stereo not given in full)
TGI [1]: > 100 µM
TGI [2]: > 100 µM
TGI [3]: > 100 µM
TGI [4]: > 100 µM
TGI [5]: > 100 µM
TGI [6]: > 100 µM
TGI [7]: > 100 µM
TGI [8]: > 100 µM
TGI [9]: > 100 µM
TGI [10]: > 100 µM
TGI [11]: > 100 µM
TGI [12]: > 100 µM

O=c1cc(-c2ccccc2)[nH]c2cc3c(cc12)OCO3
TGI [1]: > 100 µM
TGI [2]: 63.1 µM
TGI [3]: > 100 µM
TGI [4]: > 93.1 µM
TGI [13]: > 100 µM
TGI [5]: > 100 µM
TGI [6]: > 93 µM
TGI [7]: > 100 µM
TGI [8]: > 100 µM
TGI [9]: > 82.3 µM
TGI [10]: > 93.2 µM
TGI [11]: > 46.4 µM
TGI [12]: 22.2 µM

O=C(CC(c1ccccc1)N1CCCCC1)c1ccccc1 (stereo not given)
TGI [1]: 8.6 µM
TGI [2]: 29.3 µM
TGI [3]: 34.8 µM
TGI [4]: 22.6 µM
TGI [13]: 40.2 µM
TGI [5]: 34.6 µM
TGI [6]: 25.9 µM
TGI [7]: 41.3 µM
TGI [8]: 29.4 µM
TGI [9]: 21.9 µM
TGI [10]: 35.4 µM
TGI [11]: 29.5 µM
TGI [12]: 23.9 µM

COC(CN(C(=O)c1ccccc1)C1CCC2(SCCS2)c2[nH]c3ccccc3c21)OC (stereo not given)
TGI [1]: > 100 µM
TGI [2]: > 100 µM
TGI [3]: > 100 µM
TGI [4]: > 100 µM
TGI [13]: > 100 µM
TGI [5]: > 100 µM
TGI [6]: > 100 µM
TGI [7]: > 100 µM
TGI [8]: 77.1 µM
TGI [9]: > 100 µM
TGI [10]: > 100 µM
TGI [11]: > 100 µM
TGI [12]: > 100 µM

C=CCNC1=C2C[C@@H](C)C[C@@H](OC)[C@@H](OC(=O)CCCN)[C@H](C)/C=C(\C)[C@@H](OC(N)=O)[C@H](OC)/C=C\C=C(/C)C(=O)NC(=CC1=O)C2=O
TGI [1]: > 100 µM
TGI [2]: 36.3 µM
TGI [3]: 25.7 µM
TGI [4]: 19.2 µM
TGI [13]: 48.4 µM
TGI [5]: 33.5 µM
TGI [6]: 42.2 µM
TGI [7]: 32.8 µM
TGI [8]: 29.1 µM
TGI [9]: > 50.4 µM
TGI [10]: 31 µM
TGI [11]: 21.4 µM
TGI [12]: 32.8 µM

c1cc(-c2ncc(-c3ccc4c(c3)CCCO4)o2)ccn1
TGI [1]: 7.05 µM
TGI [2]: 59.6 µM
TGI [3]: 53.3 µM
TGI [13]: > 100 µM
TGI [5]: > 100 µM
TGI [6]: > 100 µM
TGI [7]: > 100 µM
TGI [8]: 46.5 µM
TGI [9]: 66.5 µM
TGI [10]: 37.6 µM
TGI [11]: 32 µM
TGI [12]: 29.9 µM

N#Cc1c(-c2ccccc2)[nH]c2ccccc2c1=O
TGI [1]: > 100 µM
TGI [2]: > 100 µM
TGI [3]: 69.8 µM
TGI [4]: > 100 µM
TGI [13]: > 100 µM
TGI [5]: > 100 µM
TGI [6]: > 100 µM
TGI [7]: > 100 µM
TGI [8]: > 100 µM
TGI [10]: > 100 µM
TGI [11]: > 100 µM
TGI [12]: > 100 µM

COn1cc(C=O)c2ccccc21
TGI [1]: > 100 µM
TGI [2]: 3.97 µM
TGI [3]: > 100 µM
TGI [4]: > 56.5 µM
TGI [13]: > 100 µM
TGI [5]: > 100 µM
TGI [6]: > 100 µM
TGI [7]: > 100 µM
TGI [8]: > 100 µM
TGI [9]: > 100 µM
TGI [10]: > 100 µM
TGI [11]: > 100 µM
TGI [12]: > 100 µM

CCN1c2nc3ccccc3nc2N(CC)c2nc3ccccc3nc21
TGI [1]: > 100 µM
TGI [2]: > 100 µM
TGI [3]: > 100 µM
TGI [4]: > 100 µM
TGI [5]: > 100 µM
TGI [6]: > 100 µM
TGI [7]: > 100 µM
TGI [8]: > 100 µM
TGI [9]: > 100 µM
TGI [10]: > 100 µM
TGI [11]: > 100 µM
TGI [12]: > 100 µM

Cc1ccc(S(=O)(=O)C2=Cc3ccc(C(F)(F)F)cc3C2(O)c2cccc(C(F)(F)F)c2)cc1 (stereo not given)
TGI [1]: 6.34 µM
TGI [2]: 3.83 µM
TGI [3]: 5.22 µM
TGI [4]: 4.53 µM
TGI [13]: 4.05 µM
TGI [5]: 5.06 µM
TGI [6]: 3.96 µM
TGI [7]: 8.61 µM
TGI [8]: 8.03 µM
TGI [9]: 3.6 µM
TGI [10]: 3.57 µM
TGI [11]: 5.14 µM
TGI [12]: 3.01 µM

COC1=C(Br)[C@H](O)[C@@]2(C=C1Br)CC(C(=O)NCCCCCN=C(N)N)=NO2
TGI [1]: > 10 µM
TGI [2]: > 10 µM
TGI [3]: > 10 µM
TGI [4]: > 10 µM
TGI [13]: > 10 µM
TGI [5]: > 10 µM
TGI [6]: > 10 µM
TGI [7]: > 10 µM
TGI [8]: > 10 µM
TGI [9]: > 10 µM
TGI [10]: > 10 µM
TGI [11]: > 10 µM
TGI [12]: > 10 µM

O=C(O)c1nc(-c2ccccn2)c(-c2ccccn2)nc1C(=O)O
TGI [1]: > 100 µM
TGI [2]: 4.12 µM
TGI [3]: 37.6 µM
TGI [4]: 17.9 µM
TGI [13]: 12.5 µM
TGI [5]: 30.5 µM
TGI [6]: 13.2 µM
TGI [7]: 11.9 µM
TGI [8]: 20.9 µM
TGI [9]: 13.3 µM
TGI [10]: 29.9 µM
TGI [11]: 8.54 µM
TGI [12]: 12.4 µM

Cn1ccc(C(=O)NCCOCCNC(=O)c2ccn(C)c(=O)c2O)c(O)c1=O
TGI [2]: > 100 µM
TGI [3]: > 100 µM
TGI [4]: > 100 µM
TGI [13]: > 100 µM
TGI [5]: > 100 µM
TGI [6]: > 100 µM
TGI [7]: > 100 µM
TGI [8]: > 100 µM
TGI [9]: > 100 µM
TGI [10]: > 100 µM
TGI [11]: > 100 µM

CCC1OC2C(CC=C(C)C)=C3OC(C)(O)C(C)(CC)C(OC(=O)c4ccccc4)C3=C3OC(=O)C=C1C32 (stereo not given)
TGI [1]: > 100 µM
TGI [2]: > 100 µM
TGI [3]: 47.7 µM
TGI [4]: > 100 µM
TGI [5]: 49.1 µM
TGI [6]: > 100 µM
TGI [7]: > 100 µM
TGI [8]: > 100 µM
TGI [9]: > 100 µM
TGI [10]: 55.2 µM
TGI [11]: > 100 µM
TGI [12]: > 100 µM

Cc1ccc2nc(-c3ccc(N)c(I)c3)sc2c1
TGI [1]: > 100 µM
TGI [2]: 56 µM
TGI [3]: > 100 µM
TGI [4]: 56.1 µM
TGI [13]: 41.9 µM
TGI [5]: > 100 µM
TGI [6]: 32.7 µM
TGI [7]: 58.7 µM
TGI [8]: 60.6 µM
TGI [9]: 98.6 µM
TGI [10]: 40.8 µM
TGI [11]: 34.8 µM
TGI [12]: > 100 µM

NC(CCC(=O)NC(CSC(=O)N(O)c1ccc(Br)cc1)C(=O)NCC(=O)O)C(=O)O (stereo not given)
TGI [1]: > 100 µM
TGI [2]: > 100 µM
TGI [3]: > 50 µM
GI50 [4]: > 100 µM and 45 µM
TGI [4]: > 100 µM
TGI [13]: > 100 µM
TGI [5]: > 50 µM
TGI [6]: > 100 µM
TGI [7]: > 100 µM
TGI [8]: > 50 µM
TGI [9]: > 100 µM
TGI [10]: > 100 µM
TGI [11]: > 100 µM
TGI [12]: > 100 µM

CO[C@H]1[C@@H](O)[C@@H](C)O[C@@H](O[C@H]2CC[C@@]3(C)[C@H](CC[C@@H]4[C@@H]3CC[C@]3(C)[C@@H](C5=CC(=O)OC5)[C@@H](OC(C)=O)C[C@]43O)C2)[C@@H]1O
TGI [1]: 0.756 µM
TGI [2]: 1.27 µM
TGI [3]: 0.161 µM
TGI [4]: 0.592 µM
TGI [13]: 0.127 µM
TGI [5]: 0.972 µM
TGI [6]: 0.067 µM
TGI [7]: 0.0241 µM
TGI [8]: 0.113 µM
TGI [9]: 0.186 µM
TGI [10]: 0.345 µM
TGI [11]: 0.209 µM
TGI [12]: 0.0905 µM
